Tests used:
Assay type in all cases: in vivo
Phytophthora infestans = assay: whole plant or invertebrate; settings: for Test D disease control rating: tomato seedlings
[1] = system: Erysiphe graminis f. sp. tritici; assay: Test G: preventive spray on wheat seedlings, wheat powdery mildew, visual disease rating
How it was run: (§1)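 Preventive foliar spray of wheat seedlings to run-off, at 250 ppm or other indicated rate. Compounds dissolved in acetone (3% of final volume), suspended in 50/50 acetone–water with PEG400 surfactant. Disease rated visually.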

Zymoseptoria tritici = assay: Test E: preventive spray on wheat seedlings, wheat leaf blotch, visual disease rating
How it was run: as §1

[2] = system: Puccinia recondita f. sp. tritici; assay: Test F: preventive spray on wheat seedlings, wheat leaf rust, visual disease rating
How it was run: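 Preventive test: wheat seedlings were sprayed to run-off with compound suspended in acetone/water 50/50 plus PEG400 (250 ppm or other indicated rate). One day later they received Puccinia recondita f. sp. tritici spores, and disease was scored visually.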

Botrytis cinerea = assay: Test C: preventive spray on tomato seedlings, gray mold, visual disease rating
How it was run: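 Tomato seedlings received a run-off spray, typically 250 ppm (or stated rate), ahead of gray mold inoculation and visual scoring. Test suspensions: acetone stock (3% of volume) diluted into 1:1 acetone/water containing PEG400.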

Plasmopara viticola = assay: Test B: preventive spray on grape seedlings, grape downy mildew, disease rating
Text: General protocol for preparing test solutions for Tests AG: the test compounds were first dissolved in acetone in an amount equal to 3% of the final volume and then suspended at the desired concentration (in ppm) in acetone and purified water (50/50 mix by volume) containing the surfactant PEG400 (polyhydric alcohol esters). The resulting test suspensions were then used in Tests AG. Compounds were sprayed at a concentration of 250 ppm or other indicated rate to the point of run-off on the test plants. The test solution was sprayed to the point of run-off on grape seedlings. […] A dash (-) indicates no test results.

Phakopsora pachyrhizi = assay: Test A: preventive spray on soybean seedlings, Asian soybean rust, visual disease rating
[3] = 250 ppm, 100 = 100% disease control, 0 = no control

SMILES | Test D disease control rating (Phytophthora infestans; [3]) [%] | Test G disease control rating [1, 3] [%] | Test E disease control rating (Zymoseptoria tritici; [3]) [%] | Test F disease control rating [2, 3] [%] | Test C disease control rating (Botrytis cinerea; [3]) [%] | Test B disease control rating (Plasmopara viticola; [3]) [%] | Test A disease control rating (Phakopsora pachyrhizi; [3]) [%] | other results
Cn1ncc(O)c(C(=O)Nc2ncccc2Cl)c1=O [Compound 45] | 94 | 0 | 0 | 98 | 99 | 88 | – | –
O=C(Nc1ccc(OC(F)(F)F)cc1)c1c(O)cnn(CC(F)(F)F)c1=O [Compound 119] | 87 | 99 | 73 | 97 | 0 | 100 | – | –
CC(=O)Oc1cnn(C)c(=O)c1C(=O)N(C(C)=O)c1ccc(OC(F)(F)F)cc1 [Compound 84] | – | – | – | – | – | – | – | Test D disease control rating (Phytophthora infestans; 280 ppm): 100%; Test G disease control rating ([1]; 280 ppm): 99%; Test E disease control rating (Zymoseptoria tritici; 280 ppm): 100%; Test F disease control rating ([2]; 280 ppm): 100%; Test C disease control rating (Botrytis cinerea; 280 ppm): 0%; Test B disease control rating (Plasmopara viticola; 280 ppm): 99%
Cn1ncc(O)c(C(=O)Nc2c(Cl)cc(Cl)cc2Cl)c1=O [Compound 118] | 100 | 97 | – | 86 | 0 | 71 | – | –
Cn1ncc(O)c(C(=O)Nc2ncc(Cl)cn2)c1=O [Compound 38] | 0 | 0 | 0 | 68 | 0 | 20 | – | –
Cn1ncc(O)c(C(=O)Nc2ccc(F)cc2C(F)(F)F)c1=O [Compound 145] | – | 99 | 99 | 99 | 0 | 100 | – | –
Cc1cc(OC(F)(F)F)ccc1NC(=O)c1c(O)cnn(C)c1=O [Compound 124] | 99 | 99 | – | 99 | 0 | 99 | – | –
Cn1ncc(O)c(C(=O)Nc2ccccc2OC(F)(F)F)c1=O [Compound 126] | – | 93 | 82 | 89 | 0 | 95 | – | –
CCCC(=O)Oc1cnn(C)c(=O)c1C(=O)N(C(=O)CCC)c1ccc(OC(F)(F)F)cc1 [Compound 139] | 0 | 100 | – | 100 | 0 | 100 | – | –
CCCC(=O)Oc1cnn(C)c(=O)c1C(=O)Nc1ccc(OC(F)(F)F)cc1 [Compound 87] | – | 99 | 100 | 100 | 0 | 100 | – | –
Cn1ncc(OC(=O)C(C)(C)C)c(C(=O)Nc2ccc(OC(F)(F)F)cc2)c1=O [Compound 53] | 99 | 98 | 79 | 100 | 39 | – | 79 | –
Cn1ncc(Cl)c(C(=O)Nc2ccc(OC(F)(F)F)cc2F)c1=O [Compound 51] | – | – | – | – | – | – | – | Test D disease control rating (Phytophthora infestans; 125 ppm): 57%; Test G disease control rating ([1]; 125 ppm): 0%; Test E disease control rating (Zymoseptoria tritici; 125 ppm): 89%; Test A disease control rating (Phakopsora pachyrhizi; 125 ppm): 99%; Test F disease control rating ([2]; 125 ppm): 96%; Test C disease control rating (Botrytis cinerea; 125 ppm): 97%
O=C(Nc1ccc(OC(F)(F)F)cc1)c1c(O)cnn(-c2cccc(C(F)(F)F)c2)c1=O [Compound 71] | 0 | 0 | 0 | 0 | 0 | – | 12 | –
COc1cccc(NC(=O)c2c(OS(C)(=O)=O)cnn(C)c2=O)c1 [Compound 108] | 0 | 0 | 0 | 68 | 0 | – | 0 | –
Cc1cccc(NC(=O)c2c(O)cnn(C)c2=O)c1 [Compound 54] | 0 | 0 | 0 | 95 | 0 | – | 0 | –
Cn1ncc(Cl)c(C(=O)Nc2ccccc2-c2ccc(F)c(F)c2F)c1=O [Compound 32] | 0 | 0 | 0 | 96 | 0 | – | 94 | –
Cn1ncc(O)c(C(=O)Nc2ccc(OC(F)F)cc2)c1=O [Compound 47, N-[4-(Difluoromethoxy)phenyl]-2,3-dihydro-5-hydroxy-2-methyl-3-oxo-4-pyridazinecarboxamide] | – | – | – | – | – | – | – | pest or weed control at 250 ppm (Phytophthora infestans; Phytophthora infestans, in Solanum lycopersicum, read-out: Test D disease control rating): 88%; pest or weed control at 250 ppm ([1]; Blumeria graminis, 192 h, 250 ppm, 100 = 100% disease control, 0 = no control): 0%; pest or weed control at 250 ppm (Zymoseptoria tritici; Zymoseptoria tritici, 250 ppm, 100 = 100% disease control, 0 = no control): 77%; pest or weed control at 250 ppm (Phakopsora pachyrhizi; Phakopsora pachyrhizi, 250 ppm, 100 = 100% disease control, 0 = no control): 38%; pest or weed control at 250 ppm ([2]; Puccinia recondita, 250 ppm, 100 = 100% disease control, 0 = no control): 99%; pest or weed control at 250 ppm (Botrytis cinerea; Botrytis cinerea, 250 ppm, 100 = 100% disease control, 0 = no control): 0%
Cn1ncc(Cl)c(C(=O)Nc2ccc(Br)cc2)c1=O [Compound 149] | 68 | 0 | 0 | 99 | 0 | – | 92 | –
Cn1ncc(O)c(C(=O)Nc2cccc(C(F)(F)F)c2)c1=O [Compound 56] | 61 | 35 | 0 | 92 | 0 | – | 0 | –
Cn1ncc(OS(C)(=O)=O)c(C(=O)Nc2ccccc2F)c1=O [Compound 104] | 0 | 65 | 94 | 89 | 0 | – | 87 | –
Cn1ncc(O)c(C(=O)Nc2ccc(OC(F)(F)F)cc2C(F)(F)F)c1=O [Compound 148] | – | 98 | 79 | 86 | 0 | 79 | – | –
Cn1ncc(Cl)c(C(=O)Nc2cccc(C(F)(F)F)c2)c1=O [Compound 64] | – | – | – | – | – | – | – | Test D disease control rating (Phytophthora infestans; 265 ppm): 53%; Test G disease control rating ([1]; 265 ppm): 0%; Test E disease control rating (Zymoseptoria tritici; 265 ppm): 94%; Test A disease control rating (Phakopsora pachyrhizi; 265 ppm): 92%; Test F disease control rating ([2]; 265 ppm): 91%; Test C disease control rating (Botrytis cinerea; 265 ppm): 76%

— patent publication US20190133128A1, “Fungicidal pyridazinones” (FMC Corporation, priority 2017, published 2019)
